We go through five molecules from patent US20250057805A1, “METHODS FOR ADDRESSING INJECTION SITE REACTIONS ASSOCIATED WITH THE ADMINISTRATION OF BEVEMIPRETIDE” (Stealth BioTherapeutics Inc., priority 2023, published 2025).

What is called pEC50 is −log10 of the EC50, conventionally taken in molar units.

The structures appear in SMILES notation. pEC50: −log10 of the molar value.

Series [1] deals with T1, human MRGPRX2 (Homo sapiens, UniProt Q96LB1).
T1 sequence (Q96LB1 1-330): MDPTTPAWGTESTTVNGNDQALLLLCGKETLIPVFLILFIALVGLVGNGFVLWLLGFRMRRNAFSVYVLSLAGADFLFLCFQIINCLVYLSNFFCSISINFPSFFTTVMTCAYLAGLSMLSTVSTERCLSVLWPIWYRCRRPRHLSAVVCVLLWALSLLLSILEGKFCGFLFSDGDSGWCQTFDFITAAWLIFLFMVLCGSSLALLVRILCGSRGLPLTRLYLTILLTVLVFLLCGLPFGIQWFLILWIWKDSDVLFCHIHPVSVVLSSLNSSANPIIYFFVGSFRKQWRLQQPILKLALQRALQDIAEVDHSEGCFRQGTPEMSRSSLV
In words: Calcium mobilization (Fluo-4 AM) in MRGPRX2 expressing Chem-1 cells. In kind it is cell-based. The note with it: for inhibition of the activation of the MRGPRX2 receptor caused by bevemipretide: MRGPRX2 expressing cells with 100 μM of bevemipretide, FIGS. 7A and 7B; for activation of the MRGPRX2 expressing cells (calcium response): MRGPRX2 expressing Chem-1 cells, FIG. 5A, FIG. 6. More on the design: host or cells: Chem-1 cells (G418-selected). As to the method: (§1) MRGPRX2 expressing and control (non-MRGPRX2 expressing) Chem-1 cells lines were obtained from Discovery Services, EuroFins. Cells were cultured in Dulbecco's Modified Eagle Medium (DMEM) high glucose medium (4.5 g/L) with 10% fetal bovine serum (FBS), non-essential amino acids, and N-2-hydroxyethylpiperazine-N′-2-ethanesulfonic acid (HEPES) buffer (pH 7.0-7.6). Geneticin (G418) was used for selection of MRGPRX2-expressing Chem-1 cells. Cells were maintained at 37° C. at 5% CO2. Cells were seeded to a glass bottom 96-well plates at a density of 50,000 per well (Cellvis). Cells were loaded with Fluo-4 AM for 30 minutes at 37° C. at a concentration of 2.5 μM. Cells were washed once with Dulbecco's phosphate buffered saline (DPBS). Cells were rested at room temperature for 30 minutes before use and washed with DPBS. Cells were resuspended in 50 μL phosphate buffered saline (PBS) with calcium and magnesium. To stimulate cells, 50 μL of 2× drug (bevemipretide or leuprolide) or DPBS as a control. Plates were read immediately with a Biotek plate reader. Readings were taken every 6 seconds for 2 minutes.
(§2) This assay was designed as a calcium-based readout of receptor activity.
On the technique in general: Calcium flux is commonly read through the fluorescence of an indicator in the cells.

Series [2] has as its system control (non-MRGPRX2 expressing) Chem-1 cells. Briefly: Calcium mobilization (Fluo-4 AM) in control Chem-1 cells lacking the MRGPRX2 receptor. It is filed as cell-based, human. The note with it: parent Chem-1 cells lacking MRGPRX2; FIG. 5B. As to the method: as §1, §2
Series [3] is described as follows: Long term toxicology studies in rats, subcutaneous administration. It is filed as in vivo.
Series [4] deals with T1, human MRGPRX2. Briefly: Fluo-4 calcium assay in HEK293 cells stably expressing human MRGPRX2 and Galpha15 (fluorescent plate reader). It is filed as cell-based. More on the design: expressed in transfected cells; host or cells: clonal HEK293 cell line. Particulars: calcium response, multiple runs, FIG. 4. As to the method: A clonal HEK293 cell line stably expressing human MRGPRX2 and Galpha15 was used for the assay, which was performed using a fluorescent plate reader. Cells were plated at 40,000 cells per well in a glass-bottom 96 well plate 20 hours before the assay. Cells were loaded with N-[4-[6-[(Acetyloxy)methoxy]-2,7-difluoro-3-oxo-3H-xanthen-9-yl]-2-[2-[2-[bis[2-[(acetyloxy)methoxy]-2-oxoethyl]amino]-5-methylphenoxy]ethoxy]phenyl]-N-[2-[(acetyloxy)methoxy]-2-oxoethyl]glycine (acetyloxy)methyl ester (Fluo-4 AM) for 45 minutes at 37°° C. and allowed to rest for 30 minutes before use. Baseline fluorescence was calculated as the average of a 30 second read, with data points taken at 5 second intervals. Response was defined as the maximum signal within 90 seconds after addition of bevemipretide, subtracted by the baseline fluorescence signal. Concentrations were tested in duplicate and the assay was run 6 times. The curve was calculated as a four-parameter non-linear fit with variable slope. Traces were obtained using the same cell line and same Fluo-4 AM loading protocol but were imaged using a fluorescence microscope using a standard fluorescein isothiocyanate (FITC) filter. Fluorescence for different cells was calculated using region of interest selections.

The nature of series [5]: Phase 1 human clinical trial, subcutaneous administration. In kind it is in vivo. Particulars: phase 1, subcutaneous administration.
Series [6] can be described thus: Long term toxicology studies of non-human primates. In kind it is in vivo.

`C[C@@H]1C[C@H]2[C@@H]3CCC4=CC(=O)C=C[C@]4(C)[C@@]3(Cl)[C@@H](O)C[C@]2(C)[C@@]1(O)C(=O)CCl` [monetasone, mometasone]: the “inhibition of the activation of the MRGPRX2 receptor caused by bevemipretide” value in series [1] is recorded as “in a dose-dependent manner, inhibit the activation”.

On to `C[C@H](CCC(=O)O)C[C@H](C)C[C@H](C)C(=O)/C=C(\O)[C@H](C)C[C@H](C)C/C=C/[C@@H](C)[C@@H](O)[C@@H](C)[C@@H](O)C[C@@H]1CC[C@@](C)([C@H]2CC[C@@](C)([C@@H](C)O)O2)O1` [Ionomycin, reference compound], for which the “activation of the MRGPRX2 expressing cells (calcium response)” value (“activation … (calcium response)” for short) in series [1] is recorded as “generates a calcium response”. The “effect on cells lacking the MRGPRX2 receptor (calcium response)” value in series [2] was “generates a calcium response”.

Consider `CCNC(=O)[C@@H]1CCCN1C(=O)[C@H](CCCNC(=N)N)NC(=O)[C@H](CC(C)C)NC(=O)[C@@H](CC(C)C)NC(=O)[C@H](Cc1ccc(O)cc1)NC(=O)[C@H](CO)NC(=O)[C@H](Cc1c[nH]c2ccccc12)NC(=O)[C@H](Cc1c[nH]cn1)NC(=O)[C@@H]1CCC(=O)N1` [leuprolide], for which, in series [1], the “activation … (calcium response)” value is on record as “dose dependent activation”.

`O=c1c(O)c(-c2ccc(O)c(O)c2)oc2cc(O)cc(O)c12` [quercetin, 3,3′,4′,5,7-pentahydroxyflavone]: the “inhibition of the activation of the MRGPRX2 receptor caused by bevemipretide” value in series [1] is given as “in a dose-dependent manner, inhibit the activation”.

On to `Cc1cc(O)cc(C)c1C[C@H](NC(=O)[C@H](N)CCCNC(=N)N)C(=O)N[C@@H](CCCCN)c1nc(Cc2ccccc2)no1` [bevemipretide], for which the injection site reactions result was “injection site reactions were observed from subcutaneous administration; some being severe at the higher dose levels administered” in series [3], “injection site reactions were observed as an adverse event” in series [5] and “generally not severe even at the highest dosages tested” in series [6]. Besides, the pEC50 in series [4] is 4.27 to 4.36. Besides, the “activation … (calcium response)” value in series [1] is recorded as “dose dependent activation”. The “effect on cells lacking the MRGPRX2 receptor (calcium response)” value in series [2] was “no effect”.
